Results taken from the supplement of paper PMC8967900.

How the values were obtained:
Experiment in all cases: selective drug sensitivity score (sDSS, relative to normal bone marrow) (sDSS (score)); higher = more potent and effective on the cell line relative to normal bone marrow cells
Conditions in all cases: 72 h
[1] = tested on: 380
[2] = tested on: ALL-SIL
[3] = tested on: COG-LL-317
[4] = tested on: COG-LL-319h
[5] = tested on: COG-LL-394h
[6] = tested on: COG-LL-402h
[7] = tested on: HPB-ALL
[8] = tested on: JURKAT
[9] = tested on: KASUMI-10
[10] = tested on: KASUMI-9
[11] = tested on: MHH-CALL-3
[12] = tested on: MOLT-4
[13] = tested on: NALM-16
[14] = tested on: NALM-6
[15] = tested on: PEER
[16] = tested on: PF-382
[17] = tested on: RCH-ACV
[18] = tested on: REH
[19] = tested on: SEM cells
[20] = tested on: TANOUE
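Note: ALL cell lines in 384-well plates, five doses spanning 10,000-fold, each plate scaled between vehicle and 100 µmol/L benzalkonium chloride controls, sDSS an adapted area-under-curve metric.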

| SMILES | selective drug sensitivity score [1] | selective drug sensitivity score [2] | selective drug sensitivity score [3] | selective drug sensitivity score [4] | selective drug sensitivity score [5] | selective drug sensitivity score [6] | selective drug sensitivity score [7] | selective drug sensitivity score [8] | selective drug sensitivity score [9] | selective drug sensitivity score [10] | selective drug sensitivity score [11] | selective drug sensitivity score [12] | selective drug sensitivity score [13] | selective drug sensitivity score [14] | selective drug sensitivity score [15] | selective drug sensitivity score [16] | selective drug sensitivity score [17] | selective drug sensitivity score [18] | selective drug sensitivity score [19] | selective drug sensitivity score [20] |
| --- | --- | --- | --- | --- | --- | --- | --- | --- | --- | --- | --- | --- | --- | --- | --- | --- | --- | --- | --- | --- |
| CC1(C)CCC(c2ccc(Cl)cc2)=C(CN2CCN(c3ccc(C(=O)NS(=O)(=O)c4ccc(N[C@H](CCN5CCOCC5)CSc5ccccc5)c(S(=O)(=O)C(F)(F)F)c4)cc3)CC2)C1 [Navitoclax] (top concentration 10000 nM) | 26.1 | 20 | 20.5 | 22.1 | 19.2 | 23.4 | 17.8 | 9.02 | 26.4 | 19.8 | 29 | 15.6 | 19.2 | 11.7 | 12.2 | 13.7 | 3.32 | 4.92 | 14.2 | -8.58 |
| CNC(=O)c1cccc(-c2ccc3c(N4CCOC[C@@H]4C)nc(N4CCOC[C@@H]4C)nc3n2)c1 [Vistusertib] (top concentration 10000 nM) | 17.1 | 8.52 | 2.12 | 10.6 | -1.28 | 9.12 | 1.12 | 2.22 | 0.32 | 11.8 | 2.12 | 3.12 | 2.22 | 3.92 | 5.22 | 7.02 | 24.5 | 9.32 | 4.82 | -2.78 |
| O=C1CCc2c(Oc3ccc4c(c3)[C@@H]3[C@H](O4)[C@H]3c3nc4cc(C(F)(F)F)ccc4[nH]3)ccnc2N1 [Lifirafenib (BGB-283)] (top concentration 10000 nM) | 0.98 | 30 | 2.28 | -0.52 | 6.88 | 2.38 | 0.98 | 5.28 | 7.98 | 5.58 | 0.68 | 1.38 | -0.02 | 5.58 | 10.7 | 3.18 | 10.3 | 3.48 | 15.7 | 0.48 |
| CC(C)Nc1cc(-c2c[nH]c(C(=O)N[C@H](CO)c3cccc(Cl)c3)c2)c(Cl)cn1 [Ulixertinib] (top concentration 10000 nM) | -4.38 | 3.02 | -4.38 | -0.78 | -0.18 | -0.38 | -2.68 | -1.08 | -3.08 | 1.82 | -4.38 | 1.72 | 3.22 | 0.12 | 3.62 | -0.28 | 2.82 | -1.08 | 1.62 | -4.38 |
| COCCNCc1ccc(-c2cc3nccc(Oc4ccc(NC(=O)C5(C(=O)Nc6ccc(F)cc6)CC5)cc4F)c3s2)nc1 [Sitravatinib] (top concentration 2500 nM) | 2.18 | 15.9 | -0.42 | -0.32 | 3.08 | 1.78 | -0.42 | 0.38 | 20 | 3.58 | -0.42 | 0.78 | 2.78 | -0.12 | 7.38 | 1.08 | 7.38 | 2.88 | 26.2 | -0.42 |
| COc1cccc2c1C(=O)c1c(O)c3c(c(O)c1C2=O)C[C@@](O)(/C(CO)=N/NC(=O)CCCCCN1C(=O)C=CC1=O)C[C@@H]3O[C@H]1C[C@H](N)[C@H](O)[C@H](C)O1 [Aldoxorubicin] (top concentration 1000 nM) | 13.2 | 0.74 | 14.8 | 14 | 8.24 | 14.3 | 1.04 | 1.64 | 9.24 | 8.64 | 14.1 | 11.8 | -0.46 | 4.34 | -3.06 | 3.24 | 11.7 | 12.1 | 3.64 | -7.76 |
| COc1c(C)cnc(Cn2cnc3c(Cl)nc(N)nc32)c1C [BIIB021] (top concentration 10000 nM) | 7.68 | 5.88 | 10.2 | 1.78 | -4.02 | 5.78 | 3.58 | 0.48 | 8.78 | -1.22 | 9.58 | 11.8 | 2.38 | 7.88 | 3.58 | 5.78 | 9.58 | 5.68 | 7.38 | -8.12 |
| O=C(Nc1cccc(NC(=O)c2cccc(O)c2O)c1)c1cccc(O)c1O [MST-312] (top concentration 10000 nM) | 6 | 9.6 | 18.2 | 12.8 | 1.1 | 8.6 | 8.7 | 12.5 | 1 | 5 | -4 | 9.2 | 2.8 | 9.5 | 9.4 | 6 | 0.7 | 7.4 | 0.6 | 3.7 |
| Cn1cc(-c2[nH]c3cc(NC(=O)[C@H](N)C4CCCCC4)cc4c3c2C=NNC4=O)cn1 (top concentration 10000 nM) | 8.68 | 9.18 | 6.08 | 11.5 | -0.72 | 7.08 | 9.68 | 3.48 | 5.88 | 7.88 | 0.38 | 3.38 | 3.98 | 6.28 | 5.68 | 4.48 | 11.5 | 10.2 | 7.28 | -5.22 |
